We go through 1 substance from US20110244496A1, “HIV REVERSE TRANSCRIPTASE COMPOSITIONS AND METHODS” (priority 2007, published 2011).

For one series, the target named is T1, wild-type RT (Human immunodeficiency virus type 1 group M subtype B, UniProt P03366).
T1 construct: RT is a heterodimer consisting of a p66 and p51 subunit
Conditions: cited from earlier work.

The target of series [1] is T2, Lys103Asn/Tyr181Cys double mutant RT (Human immunodeficiency virus type 1 group M subtype B, UniProt P03366, K702N/Y780C).
T2 construct: RT is a heterodimer consisting of a p66 and p51 subunit
Conditions: cited from earlier work.

For series [2] the following is noted: patients given TMC278 once daily for seven days; Goebel et al., 2006; cited from earlier work.
A further series concerns HIV-1. The following applies: antiretroviral naïve patients; once daily 25, 50, 100, or 150 mg for seven days; day 8 versus before initial dosage; Goebel et al., 2006; cited from earlier work.
The target in series [3] is T3, Leu100Ile/Lys103Asn double mutant RT (Human immunodeficiency virus type 1 group M subtype B, UniProt P03366, K702N/L699I).
T3 construct: RT is a heterodimer consisting of a p66 and p51 subunit
Conditions: cited from earlier work.

Series [4] concerns the target T3, Leu100Ile/Lys103Asn double mutant RT. Nature of the series: EC50 of TMC278 against L100I/K103N double mutant. Conditions: Example 4 (Table 1, not given). The class given is cell-based, HIV-1.
The target in series [5] is T2, Lys103Asn/Tyr181Cys double mutant RT. Nature of the series: EC50 of TMC278 against K103N/Y181C double mutant. It is filed as cell-based, HIV-1. The following applies: Example 4.
The next series concerns the target T4, Y181C RT mutant (Human immunodeficiency virus type 1 group M subtype B, UniProt P03366, Y780C).
T4 construct: RT is a heterodimer consisting of a p66 and p51 subunit
Kind of series: EC50 of TMC278 against Y181C mutant. The class given is cell-based, HIV-1. The following applies: Example 4.

The conditions of series [6]: Goebel et al., 2006, cited from earlier work.
A further series concerns the target T5, K103N RT mutant (Human immunodeficiency virus type 1 group M subtype B, UniProt P03366, K702N).
T5 construct: RT is a heterodimer consisting of a p66 and p51 subunit
Nature of the series: EC50 of TMC278 against K103N mutant. It is filed as cell-based, HIV-1. The following applies: Example 4.

pEC50: −log10 of the molar value. Where two headings read alike, the source gives them in different places.

As for rilpivirine [TMC278], the pEC50 on wild-type RT (Example 2, read-out: EC50 (the 50% effective concentration)) is 9.40; at wild-type RT (de Bethune et al. online poster 2005, read-out: EC50), 9.29; in [1] (K103N and Y181C (RT55A mutations), de Bethune et al. online poster 2005) it was 8.77; in series [1] (Lys103Asn/Tyr181Cys double mutant, Guillemont et al., 2005, Janssen et al), 9.00; in series [3] (L100I and K103N (RT51A mutations), de Bethune et al. online poster 2005, read-out: EC50), 8.57; in [3] (double mutant Leu100Ile/Lys103Asn, Example 2, read-out: EC50 (the 50% effective concentration)) it was 8.15. For the same substance, the pEC50 in [4] was roughly 8.10; in series [5], greater than 9.00; on Y181C RT mutant, greater than 9.00; on K103N RT mutant, greater than 9.00. Besides, in series [2], the “headaches reported, patients” value is 14%. Moreover, in the series on HIV-1, the “average decrease of HIV-1 RNA viral load” value was 1.199 log10 copies/ml. Besides, the “plasma concentrations of TMC278” value in series [6] (at any of the time points tested, target concentration 13.5 ng/ml) was no less than 13.5 ng/mL. The Bioavailability result in [6] (patients, once daily dosage) is “excellent”.
